In PubChem BioAssay AID608 (Sanford-Burnham Center for Chemical Genomics, 2007) one finds Kd data, which are given here for 105 molecules.

Broadly, the Kd is the equilibrium constant for the complex coming apart.

The source made the active and inactive calls. No rule for the calls is given here. Some results are limits rather than exact numbers.

Chain of Peptidyl-prolyl cis-trans isomerase FKBP1A (Homo sapiens) (P62942 whole entry, looked up): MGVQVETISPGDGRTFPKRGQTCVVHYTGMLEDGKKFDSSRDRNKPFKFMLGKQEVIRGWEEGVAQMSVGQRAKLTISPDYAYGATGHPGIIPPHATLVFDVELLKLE

The assay has as its target Peptidyl-prolyl cis-trans isomerase FKBP1A (Homo sapiens) (UniProt P62942). Kind of assay: FKBP12 binders, biophysical, NMR detection (AID 608). The following applies: NMR binding, purified FKBP12.
For `CSc1ccccc1NC(=O)c1ccco1`, the Kd is > 4 mM (inactive).

With `c1ccc(-n2nnnc2Oc2cccc3cccnc23)cc1`, the Kd is > 4 mM (inactive).

Take `Nc1[nH]c(=S)ncc1S(=O)(=O)c1ccccc1`: the Kd was > 4 mM (inactive).

On to `NC(=O)C1CCN(c2ccc(Cl)nn2)CC1`, for which the Kd was > 4 mM (inactive).

With `C/C=C(\C)C(=O)OC1[C@@H]2C=C3C(CC[C@]4(C)C3CC(=O)O[C@H]4c3ccoc3)C(C)(C2=O)[C@@H](C(O)C(=O)OC)C1(C)C` (stereo not given in full), the Kd was > 4 mM (inactive).

As to `COc1ccc(S(N)(=O)=O)cc1`, the Kd was > 4 mM (inactive).

Regarding `O=C(CSc1ccccc1)N1CCC2(CC1)OCCO2`, the Kd was > 4 mM (inactive).

With `NC(=O)CC1Sc2ccccc2NC1=O` (stereo not given), the Kd is > 4 mM (inactive).

For `CC(=O)N1N=C(N)SC1c1cccnc1` (stereo not given), the Kd is > 4 mM (inactive).

In the case of `Cn1c(=O)c2c(ncn2CCN)n(C)c1=O`, the Kd is > 4 mM (inactive).

Regarding `Cc1ccc(SCCN2C(=O)NC(C)(C)C2=O)cc1`, the Kd was 0.27 mM.

On to `O=C(Cc1ccccc1)Nc1c[nH]c(=O)[nH]c1=O`, for which the Kd was > 4 mM (inactive).

With `NC(=O)Cn1nc(-c2ccco2)ccc1=O`, the Kd is > 4 mM (inactive).

Turning to `CN1CCCCC1c1ccc(-c2cccnc2)nc1` (stereo not given), the Kd is > 4 mM (inactive).

Regarding `COc1c(-c2ccccc2)oc2c(OC)cccc2c1=O`, the Kd was > 4 mM (inactive).

In the case of `COC(=O)[C@@H]1C(O)CC[C@H]2CN3CCc4c([nH]c5ccccc45)[C@@H]3C[C@@H]21` (stereo not given in full), the Kd was > 4 mM (inactive).

As to `C(=C\c1ccccc1)/C=N/n1cnnc1`, the Kd was > 4 mM (inactive).

With `O=C(O)CSc1nnc(-c2cccs2)o1`, the Kd is > 4 mM (inactive).

Consider `CC(=O)O[C@@H]1CC2C(C)(C)[C@H](O)C=C[C@]2(C)C2CC[C@]3(C)C(=CC(=O)O[C@H]3c3ccoc3)[C@@]21C` (stereo not given in full), for which the Kd was > 4 mM (inactive).

Consider `Cc1ccc(OCC(=O)n2cnnc2N)c(C)c1`, for which the Kd was > 4 mM (inactive).

On to `COc1cc2c(cc1OC)C(=O)OC2`, for which the Kd was > 4 mM (inactive).

As to `FC(F)(F)c1cc(-c2ccco2)nc(N2CCOCC2)n1`, the Kd was > 4 mM (inactive).

`Cc1ccc(CN2C3=NC(=O)CN3c3ccccc32)cc1`: the Kd is > 4 mM (inactive).

In the case of `c1coc(CNc2nc(-c3ccncc3)cs2)c1`, the Kd was > 4 mM (inactive).

With `NCc1ccc(N2CCOCC2)cc1`, the Kd is > 4 mM (inactive).

Turning to `Cc1occc1C(=O)N1CCN(S(C)(=O)=O)CC1`, the Kd was > 4 mM (inactive).

Consider `O=C(O)CC(O)c1nc2ccccc2[nH]1` (stereo not given), for which the Kd is > 4 mM (inactive).

As to `COc1cc(O)cc(/C=C/c2ccccc2)c1`, the Kd is > 4 mM (inactive).

As to `O=C(O)c1ccc(-n2ccnc2)cc1`, the Kd is > 4 mM (inactive).

For `CC(=O)N1CCN(S(=O)(=O)c2ccccc2)CC1`, the Kd was > 4 mM (inactive).

On to `Cc1csc(NC(=O)c2ccoc2C)n1`, for which the Kd was > 4 mM (inactive).

On to `Cc1cc(SCCF)n2ncnc2n1`, for which the Kd was > 4 mM (inactive).

For the molecule `CC(=O)Nc1ccc(Oc2nc(C)cc(C)n2)cc1`, the Kd is > 4 mM (inactive).

On to `c1ccc2c(c1)[nH]c1cnccc12`, for which the Kd is > 4 mM (inactive).

For `C=C[C@H]1CN2CC[C@H]1C[C@H]2[C@H](O)c1ccnc2ccccc12`, the Kd was > 4 mM (inactive).

In the case of `CCN1CCN(c2ncnc3c2nnn3C)CC1`, the Kd is > 4 mM (inactive).

In the case of `Nc1cc(F)nc(F)n1`, the Kd is > 4 mM (inactive).

On to `Cc1occc1C(=O)Nc1nnc(-c2ccncc2)s1`, for which the Kd was > 4 mM (inactive).

`COc1ccc(C(O)c2nccn2C)cc1` (stereo not given): the Kd is > 4 mM (inactive).

`Cn1c(O)c(/C=C2\C=CC=N2)c(=O)[nH]c1=O`: the Kd was > 4 mM (inactive).

Take `CC(=O)NCc1nc2ccccc2[nH]1`: the Kd was > 4 mM (inactive).

Regarding `Cc1ncc(CC(=O)O)s1`, the Kd was > 4 mM (inactive).

With `Cc1nn(-c2ccccc2)c(Cl)c1C(N)=O`, the Kd was > 4 mM (inactive).

Regarding `CSc1nc(-c2ccccc2)ccc1C(N)=O`, the Kd was > 4 mM (inactive).

Turning to `COc1cc([C@@H]2c3cc4c(cc3[C@H](O)[C@H]3COC(=O)[C@@H]23)OCO4)cc(OC)c1OC`, the Kd is > 4 mM (inactive).

Consider `Cc1cc(C(=O)Nc2nnc(C(F)(F)F)s2)no1`, for which the Kd is > 4 mM (inactive).

With `CNC(C)[C@H](O)c1ccccc1` (stereo not given in full), the Kd was > 4 mM (inactive).

For `N#Cc1cc2ccccc2nc1N`, the Kd is > 4 mM (inactive).

For the molecule `CCC[C@@H]1CCCCN1`, the Kd is > 4 mM (inactive).

`O=C(C(Sc1ccccc1)c1ccccc1)N1CCOCC1` (stereo not given): the Kd is 0.146 mM.

Regarding `COC(=O)C1Cc2ccccc2N1` (stereo not given), the Kd is > 4 mM (inactive).

Consider `O=C1C2=C(SCCS2)C(=O)N1CCCO`, for which the Kd was 0.251 mM.

For `Cc1nn2c(=O)/c(=C/c3cccc(F)c3)sc2nc1=O`, the Kd was > 4 mM (inactive).

For the molecule `NC(=O)c1cc2c(n(-c3ccccc3)c1=O)CCCC2=O`, the Kd was > 4 mM (inactive).

In the case of `CNC(=S)N1CCN=C1Nc1nc(C)cc(C)n1`, the Kd is > 4 mM (inactive).

Turning to `CN(C)c1oc(-c2ccccc2Cl)nc1C#N`, the Kd is > 4 mM (inactive).

On to `O=c1c2ccccc2ncn1C1CCCCC1`, for which the Kd was > 4 mM (inactive).

With `OCc1cc(F)cc2c1OCOC2`, the Kd was > 4 mM (inactive).

Take `Cc1ccc(CN2CCN(C(=O)C3CCC3)CC2)cc1`: the Kd was > 4 mM (inactive).

For the molecule `CCSc1nc2ccccc2n1CC(N)=O`, the Kd is > 4 mM (inactive).

With `CCNC(=S)NS(=O)(=O)c1ccccc1`, the Kd was > 4 mM (inactive).

As to `CC(=O)Nc1ccccc1OCC(N)=O`, the Kd was > 4 mM (inactive).

Consider `Fc1ccc(Cn2c(-c3cscn3)nc3ccccc32)c(Cl)c1`, for which the Kd result was “inactive”.

With `O=C(O)CNCC(O)Cn1c2ccccc2c2ccccc21` (stereo not given), the Kd is > 4 mM (inactive).

As for `CC12CN(CC#N)CC(C)(CN(CC#N)C1)C2=O`, the Kd was > 4 mM (inactive).

Regarding `O=C(O)CCc1c[nH]c2ccccc12`, the Kd was > 4 mM (inactive).

As for `O=C(Nc1ccccc1)c1cnc2n(c1=O)CCS2`, the Kd is > 4 mM (inactive).

With `O=C(O)CSCC(=O)Nc1cccc(O)c1`, the Kd is > 4 mM (inactive).

In the case of `Cc1cc(=O)[nH]c(N)n1`, the Kd is > 4 mM (inactive).

Regarding `O=C(O)CNc1ncnc2nc[nH]c12`, the Kd was > 4 mM (inactive).

On to `[O-][n+]1onc2c1CCc1c-2nn(-c2ccccc2)[n+]1[O-]`, for which the Kd is > 4 mM (inactive).

For `Cn1c(CO)nc2ccccc21`, the Kd was > 4 mM (inactive).

For `COc1ccc(NC(=O)C(N)=O)cc1Cl`, the Kd is > 4 mM (inactive).

On to `O=S1(=O)NC(=NCc2ccco2)c2ccccc21`, for which the Kd is > 4 mM (inactive).

In the case of `COc1c(O)cccc1O`, the Kd was > 4 mM (inactive).

As for `O=C(Nc1ccon1)c1sc2cc(F)ccc2c1Cl`, the Kd is > 4 mM (inactive).

In the case of `CC(=O)Nc1ccc(NC(=O)c2ccncc2)cc1`, the Kd is > 4 mM (inactive).

As for `COC(=O)c1sc(N)nc1C`, the Kd was > 4 mM (inactive).

Consider `Cc1ccc(-n2nnnc2SCC(N)=O)c(C)c1`, for which the Kd was > 4 mM (inactive).

Regarding `O=C(Nc1cccc(C(F)(F)F)c1)c1cccnc1`, the Kd was > 4 mM (inactive).

`OCc1cc2ccccc2o1`: the Kd was > 4 mM (inactive).

For the molecule `O=C(O)C1CSC(c2ccc(Cl)cc2)N1` (stereo not given), the Kd is > 4 mM (inactive).

`NC(=O)c1cn(-c2ccccc2)nc1-c1cccnc1`: the Kd is > 4 mM (inactive).

In the case of `CC(C)CCCC1(C)C=Cc2c(O)c3c(c(CCC(C)C)c2O1)OC12C(CC4CC1C(C)(C)OC2(CCC(C)C(=O)O)C4O)C3=O` (stereo not given), the Kd was > 4 mM (inactive).

As for `CCSc1n[nH]c(=O)[nH]c1=O`, the Kd is > 4 mM (inactive).

For `Cc1ccc(/C=C/C(=O)O)cc1S(=O)(=O)NCCO`, the Kd is > 4 mM (inactive).

Take `CC(=O)c1cccc(NS(=O)(=O)N(C)C)c1`: the Kd was > 4 mM (inactive).

For `Cc1csc2nc(N)nn12`, the Kd is > 4 mM (inactive).

Take `CC(C)c1ccc(SCC(=O)N2CCOCC2C(=O)O)cc1` (stereo not given): the equilibrium dissociation constant (Kd) is 0.426 mM.

For `COc1ccc(CCC(=O)N2CCOCC2)cc1`, the Kd was 0.204 mM.

Take `CS(=O)(=O)NN=C1CCCCC1`: the Kd is > 4 mM (inactive).

As to `COC(=O)c1ccc(/C=C2/NC(=S)NC2=O)cc1`, the Kd is > 4 mM (inactive).

For `O=C(Nc1cccc(Cl)c1)c1ccncc1`, the Kd was > 4 mM (inactive).

Consider `Cc1nc(CC(=O)O)c(-c2ccccc2)s1`, for which the Kd was > 4 mM (inactive).

Turning to `Cc1nnc(NC(=O)C(C)Sc2nncn2C)s1` (stereo not given), the Kd was > 4 mM (inactive).

In the case of `CCNCC(O)c1ccc([N+](=O)[O-])cc1` (stereo not given), the Kd was > 4 mM (inactive).

On to `O=C(Nn1c(=S)[nH]c2ccccc2c1=O)c1ccncc1`, for which the Kd is > 4 mM (inactive).

As to `O=C(c1ccc(Cl)c(F)c1F)N1CCCC1`, the Kd was > 4 mM (inactive).

Take `CCOC(=O)c1cnc2cc(C)nn2c1C`: the Kd was > 4 mM (inactive).

For the molecule `COC(=O)C[C@H]1C2(C)CC34OC5(C)O[C@@]6([C@H](OC(C)=O)C(OC(C)=O)[C@]7(C)C(/C(=C(/O)C(C)C)C(=O)O[C@H]7c7ccoc7)[C@@]6(O5)[C@H](OC(C)=O)[C@@]3(O)C2OC(=O)C(C)C)[C@]14C` (stereo not given in full), the Kd was > 4 mM (inactive).

As to `OCCOc1ccc(C2=NCCO2)cc1`, the Kd is > 4 mM (inactive).

Regarding `CN1CCN(C(=O)c2cc(-c3ccccc3)on2)CC1`, the Kd was > 4 mM (inactive).

`Nc1ncnc2c1ncn2CCN1CCCCC1`: the Kd is > 4 mM (inactive).

With `O=C(NC(=S)NCCO)c1ccccc1`, the Kd was > 4 mM (inactive).

With `C=CCNC(=O)c1ccc(Cl)cc1Cl`, the Kd is > 4 mM (inactive).
